# Calls of active or inactive are those of the source.
# How the values were obtained:
# [1] = M. tuberculosis H37Rv growth inhibitors, H37Rv strain (AID 1626); format: functional
# [2] = test system: Streptococcus sp. 'group A'; assay: Streptococcus pyogenes SK(-)GAS viability under kanamycin – luminescence, BacTiterGlo, confirmation, counter-screen for streptokinase expression inhibitor project, dose response (AID 1900); format: functional, organism-based
# [3] = biological target: T1, Streptokinase A (Streptococcus pyogenes serotype M1, UniProt P10520); assay: viability-normalized secreted streptokinase activity reduction – plasminogen activation absorbance, OD405, dose response (AID 1914); format: functional, Streptococcus pyogenes M1 GAS;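 also: secreted streptokinase activity via plasminogen activation per viability signal from cell pellet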
# T1 sequence (P10520 whole entry): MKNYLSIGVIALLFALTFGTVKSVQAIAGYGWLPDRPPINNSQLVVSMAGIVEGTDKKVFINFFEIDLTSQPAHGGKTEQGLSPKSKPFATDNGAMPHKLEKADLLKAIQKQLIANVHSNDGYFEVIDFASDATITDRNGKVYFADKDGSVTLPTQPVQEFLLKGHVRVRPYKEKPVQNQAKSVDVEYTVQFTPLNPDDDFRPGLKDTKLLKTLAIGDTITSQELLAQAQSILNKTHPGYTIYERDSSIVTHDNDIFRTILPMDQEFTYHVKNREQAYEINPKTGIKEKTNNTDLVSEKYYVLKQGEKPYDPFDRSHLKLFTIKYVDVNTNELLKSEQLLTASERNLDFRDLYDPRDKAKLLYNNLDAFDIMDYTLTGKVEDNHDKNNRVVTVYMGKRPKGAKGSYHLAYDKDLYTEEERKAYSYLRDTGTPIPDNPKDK
# [4] = test system: Streptococcus; assay: GAS UMAA2166 growth inhibition – luminescence, BacTiterGlo, counter-screen for streptokinase expression inhibitor project, dose response (AID 1915); format: functional, organism-based;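 also: potency for reduction of bacterial viability or growth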
# [5] = Trypanosoma cruzi growth suppression in host cells – NIH3T3 host cells, beta-gal luminescence, confirmation (AID 2044); format: functional, cell-based;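 also: intracellular parasites grown in NIH/3T3 mouse fibroblasts as host cells; luminescent beta-galactosidase reporter signal from transgenic T. cruzi replicating inside host cells; inhibitors lower the luminescence signal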
# [6] = viability of HCT116 lacking mutant beta-catenin – cell-based, human colon tumor, dose response (AID 1045); format: functional;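 also: HCT116 colon tumor cells with beta catenin knocked out; cells exposed to compound for 60 hours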
# [7] = NIH3T3 cell viability loss – ATP luminescence, mouse fibroblasts, counter-screen, dose response (AID 2010); format: functional, cell-based;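 also: cells exposed to compound for about 90 hours before reading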
# [8] = viability of PTEN-deleted HCT116 cells – cell-based, HCT116 PTEN knockout, dose response (AID 1047); format: functional;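 also: HCT116 colon tumor cells with PTEN knocked out; cells exposed to compound for 60 hours before readout; potency for loss of cell viability measured by luminescence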
# [9] = biological target: Neurotensin receptor type 1 (Homo sapiens, UniProt P30989); format: functional;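 also: Image-based confirmatory dose-response assay measuring agonist activity at NTR1; NTR1-expressing U2OS osteosarcoma cells imaged for beta-arrestin GFP spot formation; agonist potency where compounds increase beta-arrestin recruitment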
# [10] = cells
# [11] = Luminescence Cell-Based Dose Retest to Confirm Inhibitors of Cancer Stem Cells. [Related pubchem assays (depositor defined):AID2717, AID2721]; format: functional; details: Homo sapiens
# [12] = viability of uninfected HEp-2 cells – cell-based, HTS, cytotoxicity control for RSV inhibitor project, dose response (AID 2410); format: functional; details: human respiratory syncytial virus
# [13] = biological target: NS3 (Hepatitis C virus, UniProt A3EZJ3); assay: PubChem AID 2173; set-up: species or system Hepacivirus hominis
# [14] = Luminescence Cell-Based Dose Response to Identify Activators of Luciferase Translation or Activity in H4-C Neuroglioblastoma Cells. [Related pubchem assays: 1829 (Project Summary), 1814 (Primary HTS)]; format: functional
# [15] = biological target: Genome polyprotein (dengue virus type 2, UniProt P29990); assay: flavivirus cap methylation enzyme inhibition – biochemical, confirmation dose response, primary screen (AID 588689); format: functional
# [16] = Luminescence Cell-Based Dose Confirmation to Identify Activators of 5'UTR Stem-Loop Driven Alpha-Synuclein mRNA Translation in H4 Neuroglioblastoma Cells. [Related pubchem assays: 1829 (Project Summary), 1814 (Primary HTS)]; format: functional
# [17] = Luminescence Cell-Based Dose Response HTS to Identify Activators of Luciferase Translation or Activity in H4 […] Cells. [Related pubchem assays: 1829 (Project Summary), 1814 (Primary HTS)]; format: functional
# [18] = biological target: T2, Histone-lysine N-methyltransferase NSD2 (Homo sapiens, UniProt O96028); format: biochemical
# T2 sequence (O96028 whole entry): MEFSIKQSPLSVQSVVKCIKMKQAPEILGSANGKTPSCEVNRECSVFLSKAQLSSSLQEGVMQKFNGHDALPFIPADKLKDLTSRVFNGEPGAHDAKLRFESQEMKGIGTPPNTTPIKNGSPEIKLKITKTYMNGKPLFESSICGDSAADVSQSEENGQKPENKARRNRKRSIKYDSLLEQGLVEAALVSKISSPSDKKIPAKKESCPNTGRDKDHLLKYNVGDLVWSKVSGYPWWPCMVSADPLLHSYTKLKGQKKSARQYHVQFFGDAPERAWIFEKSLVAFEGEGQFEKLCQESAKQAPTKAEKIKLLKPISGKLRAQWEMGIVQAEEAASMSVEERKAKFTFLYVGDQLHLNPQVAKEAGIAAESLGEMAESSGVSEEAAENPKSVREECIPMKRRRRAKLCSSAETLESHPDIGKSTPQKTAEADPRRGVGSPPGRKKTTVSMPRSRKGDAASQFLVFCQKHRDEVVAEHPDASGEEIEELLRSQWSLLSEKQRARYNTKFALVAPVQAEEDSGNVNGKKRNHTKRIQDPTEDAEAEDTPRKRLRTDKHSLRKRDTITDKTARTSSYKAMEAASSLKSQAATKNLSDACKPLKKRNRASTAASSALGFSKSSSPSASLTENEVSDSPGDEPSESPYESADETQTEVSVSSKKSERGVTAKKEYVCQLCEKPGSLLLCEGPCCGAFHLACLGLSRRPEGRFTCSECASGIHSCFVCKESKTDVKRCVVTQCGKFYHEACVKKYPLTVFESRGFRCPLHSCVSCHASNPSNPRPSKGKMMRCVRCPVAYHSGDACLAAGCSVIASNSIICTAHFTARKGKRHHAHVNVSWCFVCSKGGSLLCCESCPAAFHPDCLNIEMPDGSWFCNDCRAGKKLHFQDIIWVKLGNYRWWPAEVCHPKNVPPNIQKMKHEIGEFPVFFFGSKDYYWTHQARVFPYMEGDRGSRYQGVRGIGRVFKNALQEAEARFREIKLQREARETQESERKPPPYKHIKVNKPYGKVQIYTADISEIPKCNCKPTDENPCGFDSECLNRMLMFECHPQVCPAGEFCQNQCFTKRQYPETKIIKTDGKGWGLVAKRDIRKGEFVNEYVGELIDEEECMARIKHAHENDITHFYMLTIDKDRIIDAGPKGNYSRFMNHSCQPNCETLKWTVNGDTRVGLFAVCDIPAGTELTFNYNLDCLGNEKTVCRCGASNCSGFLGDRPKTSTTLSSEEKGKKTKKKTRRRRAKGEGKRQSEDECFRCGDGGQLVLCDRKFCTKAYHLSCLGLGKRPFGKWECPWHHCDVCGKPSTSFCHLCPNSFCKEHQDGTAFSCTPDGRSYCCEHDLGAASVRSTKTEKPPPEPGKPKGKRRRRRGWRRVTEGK
# [19] = Luminescence Cell-Based Dose Response to Identify Activators of 5'UTR Stem-Loop Driven Prion Protein mRNA Translation in H4-C Neuroglioblastoma Cells. [Related pubchem assays: 1829 (Project Summary), 1814 (Primary HTS)]; format: functional
# [20] = Luminescence Cell-Based Dose Confirmation HTS to Identify Activators of 5'UTR Stem-Loop Driven Alpha-Synuclein mRNA Translation in H4 Neuroglioblastoma Cells. [Related pubchem assays: 1829 (Project Summary), 1814 (Primary HTS)]; format: functional
# [21] = test system: H4; assay: Luminescence Cell-Based Dose Response HTS to Identify Activators of 5'UTR Stem-Loop Driven Prion Protein mRNA Translation in H4 Neuroglioblastoma Cells. [Related pubchem assays: 1829 (Project Summary), 1814 (Primary HTS)]; format: functional; details: Homo sapiens
# [22] = A cytotoxicity screen of small molecule inhibitors of the PhoP region in Salmonella typhi identified in the primary screen. [Related pubchem assays: 1850, 1864, 1985 ]; format: functional
# [23] = biological target: T3, Mannose-6-phosphate isomerase (Homo sapiens, UniProt P34949); assay: MPI enzyme activity inhibition – biochemical, fluorescence intensity, coupled assay, primary screen (AID 1209)
# T3 sequence (P34949 whole entry): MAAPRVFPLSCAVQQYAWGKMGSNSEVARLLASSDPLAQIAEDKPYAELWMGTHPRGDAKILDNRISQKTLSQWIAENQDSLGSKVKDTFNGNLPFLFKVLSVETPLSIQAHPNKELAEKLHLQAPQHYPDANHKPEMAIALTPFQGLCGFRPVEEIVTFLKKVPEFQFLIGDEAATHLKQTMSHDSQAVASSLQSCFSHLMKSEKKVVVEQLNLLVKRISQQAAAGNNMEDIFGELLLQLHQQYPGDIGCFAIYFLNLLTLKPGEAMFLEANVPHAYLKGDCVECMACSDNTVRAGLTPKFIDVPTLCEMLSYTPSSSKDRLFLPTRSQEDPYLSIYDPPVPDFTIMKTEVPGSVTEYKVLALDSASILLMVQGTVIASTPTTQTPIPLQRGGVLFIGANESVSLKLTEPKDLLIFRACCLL
# [24] = biological target: T4, Carboxy-terminal domain RNA polymerase II polypeptide A small phosphatase 1 (Homo sapiens, UniProt Q9GZU7); assay: CTDSP1 inhibitors, concentration-response, biochemical, absorbance readout, ultra-high-throughput screen actives (AID 540297); format: functional
# T4 sequence (Q9GZU7 whole entry): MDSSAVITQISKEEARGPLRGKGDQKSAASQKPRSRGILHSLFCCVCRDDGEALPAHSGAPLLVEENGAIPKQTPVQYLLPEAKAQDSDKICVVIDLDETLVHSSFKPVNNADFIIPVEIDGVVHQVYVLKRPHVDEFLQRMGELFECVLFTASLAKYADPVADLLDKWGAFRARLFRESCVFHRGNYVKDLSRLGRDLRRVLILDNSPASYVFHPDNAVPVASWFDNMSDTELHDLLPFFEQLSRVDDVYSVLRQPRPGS
# [25] = biological target: Protein-tyrosine kinase 2-beta (Homo sapiens, UniProt Q14289);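 also: potency of inhibitors of PYK2 kinase phosphorylation of poly-GT substrate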
# [26] = biological target: T5, Estrogen receptor (Homo sapiens, UniProt P03372);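 also: potency for inhibiting coactivator peptide recruitment to the receptor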
# T5 sequence (P03372 whole entry): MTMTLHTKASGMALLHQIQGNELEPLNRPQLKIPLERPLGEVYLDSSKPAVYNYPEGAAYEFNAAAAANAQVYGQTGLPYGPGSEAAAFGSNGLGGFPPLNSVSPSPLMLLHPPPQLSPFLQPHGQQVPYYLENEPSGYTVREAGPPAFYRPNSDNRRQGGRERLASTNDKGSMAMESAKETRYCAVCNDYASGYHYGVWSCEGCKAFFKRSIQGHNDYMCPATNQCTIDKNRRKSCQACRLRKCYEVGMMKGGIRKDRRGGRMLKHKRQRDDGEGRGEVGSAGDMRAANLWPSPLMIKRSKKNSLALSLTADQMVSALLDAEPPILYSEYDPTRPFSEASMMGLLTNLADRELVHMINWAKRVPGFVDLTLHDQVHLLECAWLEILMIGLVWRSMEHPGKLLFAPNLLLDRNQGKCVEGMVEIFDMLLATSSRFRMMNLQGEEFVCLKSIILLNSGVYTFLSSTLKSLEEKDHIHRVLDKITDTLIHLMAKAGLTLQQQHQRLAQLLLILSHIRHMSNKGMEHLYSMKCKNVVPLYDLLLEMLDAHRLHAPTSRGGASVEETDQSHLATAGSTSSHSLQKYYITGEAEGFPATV
# [27] = Luminescence Cell-Based Dose Confirmation HTS to Identify Inhibitors of Polyadenylation.; format: functional
# Protein-tyrosine kinase 2-beta, sequence (Q14289 whole entry): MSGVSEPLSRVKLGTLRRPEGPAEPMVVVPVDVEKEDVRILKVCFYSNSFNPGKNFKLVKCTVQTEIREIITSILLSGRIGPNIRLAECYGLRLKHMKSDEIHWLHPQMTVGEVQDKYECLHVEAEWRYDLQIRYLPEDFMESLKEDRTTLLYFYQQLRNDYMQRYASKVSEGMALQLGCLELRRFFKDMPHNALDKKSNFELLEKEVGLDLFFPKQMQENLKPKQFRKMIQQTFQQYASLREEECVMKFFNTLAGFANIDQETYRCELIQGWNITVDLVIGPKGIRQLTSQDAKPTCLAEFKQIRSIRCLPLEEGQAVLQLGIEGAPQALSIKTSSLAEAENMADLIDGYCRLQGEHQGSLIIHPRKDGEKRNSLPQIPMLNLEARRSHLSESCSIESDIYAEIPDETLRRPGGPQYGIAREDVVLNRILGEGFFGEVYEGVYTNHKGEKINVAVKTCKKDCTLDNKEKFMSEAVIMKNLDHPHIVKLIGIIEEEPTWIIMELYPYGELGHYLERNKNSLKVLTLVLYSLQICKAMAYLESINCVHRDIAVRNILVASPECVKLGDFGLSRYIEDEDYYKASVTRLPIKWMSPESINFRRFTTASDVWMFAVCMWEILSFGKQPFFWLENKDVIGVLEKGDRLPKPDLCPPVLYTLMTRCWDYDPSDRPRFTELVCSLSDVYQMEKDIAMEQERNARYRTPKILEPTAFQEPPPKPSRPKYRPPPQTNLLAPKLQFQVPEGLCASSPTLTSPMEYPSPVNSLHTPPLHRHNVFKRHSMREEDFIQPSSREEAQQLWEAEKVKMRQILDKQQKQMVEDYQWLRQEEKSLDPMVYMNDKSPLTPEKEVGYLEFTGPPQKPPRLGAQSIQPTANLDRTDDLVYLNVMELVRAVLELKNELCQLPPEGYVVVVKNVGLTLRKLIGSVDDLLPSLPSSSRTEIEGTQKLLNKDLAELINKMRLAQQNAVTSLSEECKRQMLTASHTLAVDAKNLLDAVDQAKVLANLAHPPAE
# NS3, sequence (A3EZJ3 whole entry): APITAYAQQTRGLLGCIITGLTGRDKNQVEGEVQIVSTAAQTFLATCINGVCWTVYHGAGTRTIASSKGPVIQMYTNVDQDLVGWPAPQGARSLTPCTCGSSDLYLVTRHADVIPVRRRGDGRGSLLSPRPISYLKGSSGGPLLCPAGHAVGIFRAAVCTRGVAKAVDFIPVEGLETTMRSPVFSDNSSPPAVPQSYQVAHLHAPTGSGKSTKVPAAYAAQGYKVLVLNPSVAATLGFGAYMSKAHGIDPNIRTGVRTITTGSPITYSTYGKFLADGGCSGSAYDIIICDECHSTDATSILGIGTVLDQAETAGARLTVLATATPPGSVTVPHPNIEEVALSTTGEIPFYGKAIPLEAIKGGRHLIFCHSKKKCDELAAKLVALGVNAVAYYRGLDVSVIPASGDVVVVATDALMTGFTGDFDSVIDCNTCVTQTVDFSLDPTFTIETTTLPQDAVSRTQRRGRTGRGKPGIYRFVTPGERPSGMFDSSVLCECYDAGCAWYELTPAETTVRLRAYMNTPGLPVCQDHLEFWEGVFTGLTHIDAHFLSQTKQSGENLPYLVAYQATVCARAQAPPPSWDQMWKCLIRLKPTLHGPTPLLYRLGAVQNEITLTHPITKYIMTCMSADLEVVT
# Genome polyprotein, sequence (P29990 2492-3391 limits assumed): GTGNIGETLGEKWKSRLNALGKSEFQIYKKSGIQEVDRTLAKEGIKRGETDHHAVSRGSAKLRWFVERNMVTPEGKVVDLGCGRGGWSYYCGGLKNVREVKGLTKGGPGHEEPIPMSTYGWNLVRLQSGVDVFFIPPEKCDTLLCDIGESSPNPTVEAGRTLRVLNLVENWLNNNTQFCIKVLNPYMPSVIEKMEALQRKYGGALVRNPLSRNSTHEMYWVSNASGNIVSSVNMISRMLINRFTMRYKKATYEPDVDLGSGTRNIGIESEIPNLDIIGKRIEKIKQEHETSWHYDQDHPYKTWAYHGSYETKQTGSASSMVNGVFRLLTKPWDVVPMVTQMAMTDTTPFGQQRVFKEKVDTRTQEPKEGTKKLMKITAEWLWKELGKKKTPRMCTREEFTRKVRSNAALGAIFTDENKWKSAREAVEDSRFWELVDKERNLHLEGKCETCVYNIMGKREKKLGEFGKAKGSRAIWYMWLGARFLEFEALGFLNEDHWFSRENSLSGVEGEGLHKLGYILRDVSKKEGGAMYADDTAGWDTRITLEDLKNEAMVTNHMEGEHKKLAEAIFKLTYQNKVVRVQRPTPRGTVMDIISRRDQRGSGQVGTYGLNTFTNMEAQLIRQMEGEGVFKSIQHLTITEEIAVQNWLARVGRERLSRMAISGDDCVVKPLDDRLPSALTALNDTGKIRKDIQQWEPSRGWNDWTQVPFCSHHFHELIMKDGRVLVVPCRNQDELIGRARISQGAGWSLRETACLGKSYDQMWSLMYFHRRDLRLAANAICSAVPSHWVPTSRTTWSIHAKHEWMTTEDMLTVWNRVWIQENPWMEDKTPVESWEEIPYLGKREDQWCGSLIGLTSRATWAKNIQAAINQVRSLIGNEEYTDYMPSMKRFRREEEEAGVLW
# Neurotensin receptor type 1, sequence (P30989 whole entry): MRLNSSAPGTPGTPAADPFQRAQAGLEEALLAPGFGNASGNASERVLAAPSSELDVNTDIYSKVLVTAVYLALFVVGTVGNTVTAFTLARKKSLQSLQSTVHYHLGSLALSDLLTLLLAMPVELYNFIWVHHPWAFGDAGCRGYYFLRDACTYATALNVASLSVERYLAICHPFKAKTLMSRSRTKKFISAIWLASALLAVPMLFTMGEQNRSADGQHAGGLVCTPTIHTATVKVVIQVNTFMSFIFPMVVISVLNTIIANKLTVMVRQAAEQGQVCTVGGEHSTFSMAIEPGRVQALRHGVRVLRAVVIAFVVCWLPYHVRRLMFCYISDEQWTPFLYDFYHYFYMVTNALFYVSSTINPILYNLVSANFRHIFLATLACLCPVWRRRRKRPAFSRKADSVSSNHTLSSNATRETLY
smiles,measurement,setting,value
O=C(COC(=O)Cc1ccccc1F)Nc1ccc2c(c1)OCO2,IC50,[1],> 100 µM (active)
COc1ccc(OCCn2c(NC(=O)c3ccco3)nc3ccccc32)cc1,EC50,[2],5.47 µM (active)
same,EC50,[3],> 150 µM (not active)
same,IC50,[1],> 100 µM (active)
same,EC50,[4],> 150 µM (not active)
CCCCCn1c(N2CCC(Cc3ccccc3)CC2)nc2c1c(=O)[nH]c(=O)n2C,EC50,[5],0.971 µM (active)
same,EC50,[6],12.7 µM (active)
same,EC50,[7],> 60 µM (not active)
same,EC50,[8],11.9 µM (active)
same,EC50,[9],9.08 µM (active)
COC(=O)c1sc2nc(N3CCCCC3)c3c(c2c1N)CCCC3,IC50,[10],> 50 µM (active)
same,AC50,[11],2.95 µM (active)
same,CC50,[12],> 50 µM (active)
CC(C)C(C)(C#N)NC(=O)CSc1nc2scc(-c3ccco3)c2c(=O)n1-c1ccccc1 (configuration not stated),IC50,[13],11.3 µM (not active)
O=C1c2ccccc2C(=O)N1CCCCN(C(=O)c1cc2ccccc2oc1=O)c1ccc(Cl)cc1,IC50,[10],21.9 µM (active)
O=C(O)c1cccc(NC2=C(Cl)C(=O)c3ccccc3C2=O)c1,EC50,[5],> 30 µM (not active)
same,EC50,[14],149 nM (active)
same,IC50,[15],15.6 µM (active)
same,EC50,[16],> 12 µM (not active)
same,EC50,[7],5.21 µM (active)
same,EC50,[17],< 100 nM (active)
same,AC50,[18],5.2 µM (active)
same,EC50,[19],> 12 µM (not active)
same,EC50,[20],1.44 µM (active)
same,EC50,[21],6.76 µM (active)
Cc1nc2ccc(NC(=O)C(F)(F)F)cc2o1,IC50,[1],> 100 µM (active)
CCN=C(S)Nc1cc(-c2ccc(Cl)cc2)[nH]n1,EC50,[22],> 50 µM (active)
same,IC50,[23],> 50 µM (not active)
O=[N+]([O-])c1ccccc1S(=O)(=O)Nc1cccc(-c2ccc(N3CCOCC3)nn2)c1,IC50,[10],16.8 µM (active)
same,CC50,[12],> 50 µM (active)
Cc1ccc(CCCOC(=O)C[N+]2(C)CCCC2)cc1,IC50,[23],> 50 µM (not active)
same,IC50,[24],11 µM (active)
O=C1Nc2ccc(NS(=O)(=O)c3cccs3)c3cccc1c23,IC50,[25],5.32 µM (active)
COc1cc(C(=O)OCC(=O)Nc2c(F)c(F)c(F)c(F)c2F)cc(OC)c1OC,IC50,[26],> 50 µM (not active)
CC[n+]1c(C)n(-c2ccccc2)c2ccc(NC(C)=O)cc21,IC50,[23],> 50 µM (not active)
same,IC50,[24],5.18 µM (active)
COc1cc(C(=O)Nc2c(C)cc(C)cc2C)c(Br)c(OC)c1OC,EC50,[27],> 120 µM (not active)
